The values below come from ChEMBL document CHEMBL4483862, “Open-source discovery of chemical leads for next-generation chemoprotective antimalarials” (2018).

Where only a bound is given, the exact number is not on record here.

In this test the test system is Plasmodium berghei. The test can be described thus: Luciferase/luciferin-expressing antifolate-resistant parasites were used to infect a culture of HepG2 cells that were pre-incubated with compounds. Infected hepatocytes emit light due to the luciferase reaction. Assay results are presented as the percent inhibition of light emission compared to control. […]. The following applies: sporozoite; for IC90: read-out: LUCIFERASE INFECTION ASSAY - IC90. The format is functional.

Setting [1] is: read-out: LUCIFERASE INFECTION ASSAY - IC50.

In the case of `COc1ccc2cc(/C(C)=N/OC(=O)Nc3ccccc3)ccc2c1`, the concentration for an effect of 90% (IC90) was more than 9.87 µM. Under “HEPG2TOX_HILL_SLOPE 1.11, HEPG2TOX_R_SQUARED 0.992, read-out: LUCIFERASE INFECTION ASSAY - IC50”, the IC50 was more than 9.87 µM.
With `CC(C)c1ccc(S(=O)(=O)c2ccc(NNC(=O)c3ccccc3OCc3ccc(Cl)cc3)cc2)cc1`, the 90% effect concentration (IC90) is more than 10 µM. Also, the IC50 (FFLUC_HILL_SLOPE 4.22, FFLUC_R_SQUARED 0.402, PBLUC_HILL_SLOPE 10.9, PBLUC_R_SQUARED 0.175, read-out: LUCIFERASE INFECTION ASSAY - IC50) is 8.49 µM.
Consider `Cn1cc(-c2cnc3ccc(Cc4ccc(F)cc4)nn23)cn1`, for which the concentration for an effect of 90% (IC90) was more than 10 µM. For the setting “PBLUC_HILL_SLOPE 1.72, PBLUC_R_SQUARED 0.782, read-out: LUCIFERASE INFECTION ASSAY - IC50”, the concentration for half-maximal inhibition (IC50) came to 4.99 µM.
Regarding `O=C(Nc1ncccc1O)c1csc(COc2ccc(Cl)cc2)n1`, the concentration for an effect of 90% (IC90) came out at 7.89 µM. Further, the 50% inhibitory concentration (IC50) (HEPG2TOX_HILL_SLOPE 10.3, HEPG2TOX_R_SQUARED 0.899, PBLUC_HILL_SLOPE 4.56, PBLUC_R_SQUARED 0.315, read-out: LUCIFERASE INFECTION ASSAY - IC50) came to 4.88 µM.
Regarding `CCc1nnc(NC(=O)C2CCCN2S(=O)(=O)c2ccc(OC)cc2)s1` (centres undefined), the IC90 was more than 8.32 µM. Under setting [1], the IC50 worked out at 4.85 µM.
With `COc1ccc(-c2cnc3ccc(-c4cccc(Cl)c4)nn23)cc1OC`, the IC90 is 5.25 µM. Further, the IC50 (FFLUC_HILL_SLOPE 18.1, FFLUC_R_SQUARED 0.385, HEPG2TOX_HILL_SLOPE 1.42, HEPG2TOX_R_SQUARED 0.94, PBLUC_HILL_SLOPE 1.13, PBLUC_R_SQUARED 0.747, read-out: LUCIFERASE INFECTION ASSAY - IC50) is 0.748 µM.
On to `COCCCNC1=NN=C(c2cc(C)n(-c3ccccc3F)c2C)CS1`, for which the IC90 amounted to 9.7 µM. Also, the concentration for half-maximal inhibition (IC50) (HEPG2TOX_HILL_SLOPE 3.65, HEPG2TOX_R_SQUARED 0.669, PBLUC_HILL_SLOPE 1.05, PBLUC_R_SQUARED 0.653, read-out: LUCIFERASE INFECTION ASSAY - IC50) was found to be 1.2 µM.
On to `COc1ccc(-c2cn3c(-c4ccc5ncccc5c4)cnc3cn2)cn1`, for which the concentration for an effect of 90% (IC90) turned out to be 4.4 µM. Where the note is “HEPG2TOX_HILL_SLOPE 1.73, HEPG2TOX_R_SQUARED 0.987, PBLUC_HILL_SLOPE 1.52, PBLUC_R_SQUARED 0.763, read-out: LUCIFERASE INFECTION ASSAY - IC50”, the IC50 was 1.04 µM.
As to `Cc1ccc(Cn2nc(C)c(/C=C/C(=O)N3CCN(S(=O)(=O)c4cccs4)CC3)c2C)cc1`, the IC90 is more than 10 µM. Also, for the setting “HEPG2TOX_HILL_SLOPE 1.48, HEPG2TOX_R_SQUARED 0.941, PBLUC_HILL_SLOPE 12.2, PBLUC_R_SQUARED 0.462, read-out: LUCIFERASE INFECTION ASSAY - IC50”, the half-inhibitory concentration (IC50) turned out to be 9.53 µM.
Regarding `COc1ccc(CC2CCC(=NOC(=O)c3ccc(C(C)(C)C)cc3)CC2)cc1` (centres undefined), the IC90 was more than 8.39 µM. In addition, for the setting “FFLUC_HILL_SLOPE 16.8, FFLUC_R_SQUARED 0.295, read-out: LUCIFERASE INFECTION ASSAY - IC50”, the IC50 was more than 8.39 µM.
On to `Oc1cccnc1NC(c1ccc(Br)cc1)c1ccc2cccnc2c1O` (centres undefined), for which the 90% effect concentration (IC90) is 7.73 µM. The IC50 (FFLUC_HILL_SLOPE 24.2, FFLUC_R_SQUARED 0.301, HEPG2TOX_HILL_SLOPE 1.67, HEPG2TOX_R_SQUARED 0.953, PBLUC_HILL_SLOPE 5.65, PBLUC_R_SQUARED 0.637, read-out: LUCIFERASE INFECTION ASSAY - IC50) came to 5.24 µM.
With `COc1ccc(-c2cnc3cnc(-c4ccccc4)cn23)cc1`, the 90% effect concentration (IC90) was determined as 3.33 µM. For the same compound, under “HEPG2TOX_HILL_SLOPE 1.56, HEPG2TOX_R_SQUARED 0.972, PBLUC_HILL_SLOPE 1.73, PBLUC_R_SQUARED 0.792, read-out: LUCIFERASE INFECTION ASSAY - IC50”, the IC50 was found to be 0.932 µM.
As to `CNc1nc2cnc(Nc3cccc(N(C)C)c3)cc2n1-c1cc(OC)c(OC)c(OC)c1`, the IC90 was more than 10 µM. Besides, the IC50 under setting [1] was more than 10 µM.
For `Cc1c(O)ccc2c(CNc3ccc(C(C)(C)C)cc3)cc(=O)oc12`, the IC90 was more than 10 µM. Also, the IC50 (HEPG2TOX_HILL_SLOPE 0.191, HEPG2TOX_R_SQUARED 0.186, PBLUC_HILL_SLOPE 2.86, PBLUC_R_SQUARED 0.292, read-out: LUCIFERASE INFECTION ASSAY - IC50) was 4.84 µM.
With `COc1ccc2c(=O)c(C(=O)N(C)Cc3ccc(F)c(F)c3)c[nH]c2c1`, the IC90 worked out at 4.7 µM. The IC50 (PBLUC_HILL_SLOPE 1.79, PBLUC_R_SQUARED 0.658, read-out: LUCIFERASE INFECTION ASSAY - IC50) was found to be 1.38 µM.
For the compound `CCc1cccc(NC(=O)c2cc(C3CC3)nc3c2c(C)nn3C)c1`, the IC90 was more than 10 µM. Besides, the concentration for half-maximal inhibition (IC50) under setting [1] is more than 10 µM.
Turning to `COc1cc(-c2cc(-c3ccc(F)c(Cl)c3)cnc2N)ccc1O`, the IC90 is more than 9.57 µM. In addition, the IC50 (PBLUC_HILL_SLOPE 11.9, PBLUC_R_SQUARED 0.433, read-out: LUCIFERASE INFECTION ASSAY - IC50) is 8.61 µM.
In the case of `O=c1c(Cl)c(Cl)cnn1-c1ccc(S(=O)(=O)NCCc2ccc3c(c2)OCCO3)cc1`, the IC90 was more than 10 µM. Besides, where the note is “PBLUC_HILL_SLOPE 21.5, PBLUC_R_SQUARED 0.289, read-out: LUCIFERASE INFECTION ASSAY - IC50”, the half-maximal inhibitory concentration (IC50) was found to be 9.64 µM.
As for `NNc1cc(C(F)(F)F)nc(C(F)(F)F)c1`, the 90% effect concentration (IC90) was found to be 13 µM. Also, the IC50 (PBLUC_HILL_SLOPE 17.4, PBLUC_R_SQUARED 0.11, read-out: LUCIFERASE INFECTION ASSAY - IC50) was 11.5 µM.
Take `CCCCCCCCC/C(=N\O)c1ccccn1`: the IC90 amounted to 11.9 µM. Besides, the IC50 (HEPG2TOX_HILL_SLOPE 8.74, HEPG2TOX_R_SQUARED 0.63, PBLUC_HILL_SLOPE 40.5, PBLUC_R_SQUARED 0.34, read-out: LUCIFERASE INFECTION ASSAY - IC50) stood at 11.3 µM.
Consider `CCCCCC(/C=N/NC(=O)c1ccccc1O)=C\c1ccccc1`, for which the 90% effect concentration (IC90) is more than 10 µM. In addition, under setting [1], the concentration for half-maximal inhibition (IC50) is more than 10 µM.
For `CCOc1ccc(/C=C/C2=Cc3c(sc(NC(=O)COC(=O)c4cccc(S(=O)(=O)N5CCc6ccccc65)c4)c3C#N)C(C)(C)C2)cc1`, the IC90 is more than 10 µM. Moreover, the IC50 (FFLUC_HILL_SLOPE 15.6, FFLUC_R_SQUARED 0.606, read-out: LUCIFERASE INFECTION ASSAY - IC50) is more than 10 µM.
As to `CCn1c2ccccc2c2cc(NC(=O)COC(=O)C3CSC4(c5ccc(F)cc5)CCC(=O)N34)ccc21` (centres undefined), the concentration for an effect of 90% (IC90) was more than 10 µM. Further, the IC50 (HEPG2TOX_HILL_SLOPE 7.81, HEPG2TOX_R_SQUARED 0.779, read-out: LUCIFERASE INFECTION ASSAY - IC50) was more than 10 µM.
For `O=C(Nc1ncccc1O)c1ccc(-n2cnc3ccccc32)cc1`, the IC90 amounted to 6.03 µM. The 50% inhibitory concentration (IC50) (PBLUC_HILL_SLOPE 1.70, 2.04, PBLUC_R_SQUARED 0.693, 0.681, read-out: LUCIFERASE INFECTION ASSAY - IC50) was found to be 1.8 µM.
Regarding `CN(C)CCCOc1ccc(-c2cn3c(-c4cccc(OC(F)(F)F)c4)cnc3cn2)cn1`, the IC90 was more than 7.21 µM. Also, the half-inhibitory concentration (IC50) (PBLUC_HILL_SLOPE 15.4, PBLUC_R_SQUARED 0.0337, read-out: LUCIFERASE INFECTION ASSAY - IC50) worked out at 6.95 µM.
For the compound `CC(Nc1ccc(C(N)=O)cc1[N+](=O)[O-])C12CC3CC(CC(C3)C1)C2` (centres undefined), the concentration for an effect of 90% (IC90) is more than 10 µM. Also, the half-inhibitory concentration (IC50) under setting [1] turned out to be 5.52 µM.
For `CCCS(=O)(=O)N1CCC(NC(=O)c2scnc2C)CC1`, in that order: more than 10 µM and more than 10 µM.
For `CCn1cc(CN(C)C(=O)c2sc3cccc(Cl)c3c2Cl)c(C)n1` the same measures were more than 8.63 µM and more than 8.63 µM.
On to `COc1ccc(/N=c2\scc(-c3ccc(OC(F)F)cc3)n2/N=C/c2ccccc2[N+](=O)[O-])cc1`, for which the 90% effect concentration (IC90) was 7.35 µM. Besides, under “FFLUC_HILL_SLOPE 12.1, FFLUC_R_SQUARED 0.633, PBLUC_HILL_SLOPE 109, PBLUC_R_SQUARED 0.183, read-out: LUCIFERASE INFECTION ASSAY - IC50”, the IC50 turned out to be 7.2 µM.
Take `COCCCn1c(-c2ccc(C(C)(C)C)cc2)n[nH]c1=S`: the 90% effect concentration (IC90) was more than 10.8 µM. In addition, the half-inhibitory concentration (IC50) (PBLUC_HILL_SLOPE 2.97, PBLUC_R_SQUARED 0.207, read-out: LUCIFERASE INFECTION ASSAY - IC50) was found to be 6.76 µM.
Turning to `Fc1ccc(-c2csc3ncnc(Sc4nnc(NC5CC5)s4)c23)cc1`, the 90% effect concentration (IC90) is more than 10 µM. Besides, the concentration for half-maximal inhibition (IC50) under setting [1] was more than 10 µM.
On to `Cc1cccnc1NC(=O)c1ccc(Cl)c(S(=O)(=O)N(Cc2ccccc2)c2ccccc2)c1`, for which the IC90 is more than 10 µM. Besides, the IC50 (PBLUC_HILL_SLOPE 2.12, PBLUC_R_SQUARED 0.451, read-out: LUCIFERASE INFECTION ASSAY - IC50) is 5.79 µM.
For the compound `O=C(NNc1ccc(F)cc1)c1cccc(S(=O)(=O)N2CCc3ccccc3C2)c1`, the IC90 is more than 10 µM. Moreover, the IC50 (PBLUC_HILL_SLOPE 14.9, PBLUC_R_SQUARED 0.744, read-out: LUCIFERASE INFECTION ASSAY - IC50) was 9.22 µM.
As for `CC(NC(=O)c1ccc(S(=O)(=O)C(F)F)cc1)C12CC3CC(CC(C3)C1)C2` (centres undefined), the IC90 is more than 10 µM. In addition, under setting [1], the IC50 was more than 10 µM.
As for `COCCOc1ccc(C(F)(F)F)cc1NC(=O)Nc1ccc(Cl)c(Cl)c1`, the IC90 turned out to be 6.68 µM. For the same compound, the IC50 (PBLUC_HILL_SLOPE 3.42, PBLUC_R_SQUARED 0.295, read-out: LUCIFERASE INFECTION ASSAY - IC50) stood at 3.52 µM.
For the compound `CCn1nc(C)c(CN2CCC3(CC2)C(=O)N(Cc2ccccc2)C(=O)N3CCc2ccccc2)c1C`, the IC90 is more than 6.6 µM. For the same compound, the concentration for half-maximal inhibition (IC50) under setting [1] is 2.92 µM.
As for `O=C(Cc1ccccc1)Nc1ccccc1C(=O)Nc1nc2ccccc2[nH]1`, the concentration for an effect of 90% (IC90) was more than 10 µM. The IC50 (HEPG2TOX_HILL_SLOPE 7.34, HEPG2TOX_R_SQUARED 0.432, read-out: LUCIFERASE INFECTION ASSAY - IC50) is more than 10 µM.

In general, IC50 refers to the point on the concentration scale where inhibition reaches its midpoint. The IC90 is the concentration needed for an effect of 90%.
